Data: BindingDB's records for patent US20240190872 (University of Illinois, 2024)

Target: T1, Enoyl-[acyl-carrier-protein] reductase [NADH] (UniProt A0A6F8TJQ1)
T1 sequence (A0A6F8TJQ1 whole entry): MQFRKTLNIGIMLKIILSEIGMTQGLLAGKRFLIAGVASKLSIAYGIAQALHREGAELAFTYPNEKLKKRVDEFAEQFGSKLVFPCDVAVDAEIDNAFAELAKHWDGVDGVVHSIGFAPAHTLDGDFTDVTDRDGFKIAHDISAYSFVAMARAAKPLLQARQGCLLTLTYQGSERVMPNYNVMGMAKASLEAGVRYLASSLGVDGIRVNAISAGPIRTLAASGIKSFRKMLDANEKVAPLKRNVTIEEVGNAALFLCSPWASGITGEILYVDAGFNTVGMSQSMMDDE
Test: standard FabI enzyme assay
Procedure: To probe the effects of varying ring systems and amine placement on FabI target engagement, the apparent inhibition constants (Kiapp) for select compounds were determined using purified FabI. The goal of these studies was two-fold, to comparatively assess fabimycin, Debio-1452-NH3, and Debio-1452, and to also assess differential activity against the E. coli and A. baumannii versions of FabI. FabI from E. coli and A. baumannii were recombinantly expressed and purified, and the ability for each compound to inhibit the activity of these enzymes was evaluated using a standard FabI enzyme assay.

In the case of `Cc1c(CN(C)C(=O)/C=C/c2cnc3c(c2)C[C@@H](N)C(=O)N3)oc2ccccc12` [US20240190872, Compound (+-)-Debio-1452-NH3], the Ki is reported as 0.114 µM.
